Experimental data from patent publication US20050004185A1, “Polyene polyketides, processes for their production and their use as pharmaceuticals” (priority 2003, published 2005).
In brackets after ≈: the same amount, converted by molar mass. Read-outs that look alike come from different tables or passages of the source.

What was measured:
[1] = tested on: C. albicans (Calb); assay: MIC broth microdilution assay (NCCLS M27-A); format: cell-based; settings: Candida albicans, read-out: Minimal Inhibitory Concentrations
[2] = tested on: Candida sp. (Cflu); assay: MIC broth microdilution assay (NCCLS M27-A); format: cell-based; settings: read-out: Minimal Inhibitory Concentrations
[3] = tested on: C. glabrata (Cgla); assay: MIC broth microdilution assay (NCCLS M27-A); format: cell-based; settings: Nakaseomyces glabratus, read-out: Minimal Inhibitory Concentrations
[4] = tested on: C. albicans (Ctro); assay: MIC broth microdilution assay (NCCLS M27-A); format: cell-based; settings: Candida albicans, read-out: Minimal Inhibitory Concentrations
[5] = tested on: A549/ATCC; assay: In vitro cytotoxic efficacy (MTT); format: cell-based; settings: Homo sapiens
[6] = tested on: NCI-H460; assay: In vitro cytotoxic efficacy (MTT); format: cell-based; settings: Homo sapiens
[7] = tested on: HT29; assay: In vitro cytotoxic efficacy (MTT); format: cell-based; settings: Homo sapiens
[8] = tested on: SNB-19; assay: In vitro cytotoxic efficacy (MTT); format: cell-based; settings: Homo sapiens
[9] = tested on: LB1319-MEL; assay: In vitro cytotoxic efficacy (MTT); format: cell-based; settings: Melanoma, 96 h
[10] = tested on: OVCAR-3; assay: In vitro cytotoxic efficacy (MTT); format: cell-based; settings: Homo sapiens, Ovarian, 96 h
[11] = tested on: SK-OV3; assay: In vitro cytotoxic efficacy (MTT); format: cell-based; settings: Homo sapiens
[12] = tested on: DU-145; assay: In vitro cytotoxic efficacy (MTT); format: cell-based; settings: Homo sapiens, Prostate, 96 h
[13] = tested on: MCF7; assay: In vitro cytotoxic efficacy (MTT); format: cell-based; settings: Homo sapiens
[14] = tested on: PANC-1; assay: In vitro cytotoxic efficacy (MTT); format: cell-based; settings: Homo sapiens, Pancreatic, 96 h
[15] = tested on: A498; assay: In vitro cytotoxic efficacy (MTT); settings: Homo sapiens, A498, 96 h
[16] = tested on: PC-3; assay: In vitro cytotoxic efficacy (MTT); settings: Homo sapiens, PC-3, 96 h
[17] = tested on: MDA-MB-231/ATCC; assay: In vitro cytotoxic efficacy (MTT); settings: Homo sapiens, MDA-MB-231, 96 h
[18] = tested on: S. cerevisiae (Scer); assay: MIC broth microdilution assay (NCCLS M27-A); settings: Saccharomyces cerevisiae, read-out: Minimal Inhibitory Concentrations
[19] = tested on: CCRF-CEM; assay: In vitro cytotoxic efficacy (MTT); format: cell-based; settings: Homo sapiens, Leukemia, 96 h
[20] = tested on: HL-60 (TB); assay: In vitro cytotoxic efficacy (MTT); format: cell-based; settings: Homo sapiens, Leukemia, 96 h
[21] = tested on: K562; assay: In vitro cytotoxic efficacy (MTT); format: cell-based; settings: Homo sapiens, Leukemia, 96 h
[22] = tested on: MOLT-4; assay: In vitro cytotoxic efficacy (MTT); format: cell-based; settings: Homo sapiens, Leukemia, 96 h
[23] = tested on: RPMI-8226; assay: In vitro cytotoxic efficacy (MTT); format: cell-based; settings: Homo sapiens, Leukemia, 96 h
[24] = tested on: SR; assay: In vitro cytotoxic efficacy (MTT); format: cell-based; settings: Homo sapiens, Leukemia, 96 h
[25] = tested on: EKVX; assay: In vitro cytotoxic efficacy (MTT); format: cell-based; settings: Homo sapiens, Non-small cell lung, 96 h
[26] = tested on: HOP-92; assay: In vitro cytotoxic efficacy (MTT); format: cell-based; settings: Homo sapiens, Non-small cell lung, 96 h
[27] = tested on: NCI-H522; assay: In vitro cytotoxic efficacy (MTT); format: cell-based; settings: Homo sapiens, Non-small cell lung, 96 h
[28] = tested on: COLO 205; assay: In vitro cytotoxic efficacy (MTT); format: cell-based; settings: Homo sapiens, Colon, 96 h
[29] = tested on: HCC-2998; assay: In vitro cytotoxic efficacy (MTT); format: cell-based; settings: Homo sapiens, Colon, 96 h
[30] = tested on: HCT-15; assay: In vitro cytotoxic efficacy (MTT); format: cell-based; settings: Homo sapiens, Colon, 96 h
[31] = tested on: KM12; assay: In vitro cytotoxic efficacy (MTT); format: cell-based; settings: Homo sapiens, Colon, 96 h
[32] = tested on: SW-620; assay: In vitro cytotoxic efficacy (MTT); format: cell-based; settings: Homo sapiens, Colon, 96 h
[33] = tested on: SF-268; assay: In vitro cytotoxic efficacy (MTT); format: cell-based; settings: Homo sapiens, CNS, 96 h
[34] = tested on: SF-295; assay: In vitro cytotoxic efficacy (MTT); format: cell-based; settings: Homo sapiens, CNS, 96 h
[35] = tested on: SF-539; assay: In vitro cytotoxic efficacy (MTT); format: cell-based; settings: Homo sapiens, CNS, 96 h
[36] = tested on: SNB-75; assay: In vitro cytotoxic efficacy (MTT); format: cell-based; settings: Homo sapiens, CNS, 96 h
[37] = tested on: U-251; assay: In vitro cytotoxic efficacy (MTT); format: cell-based; settings: Homo sapiens, CNS, 96 h
[38] = tested on: LOX IMVI; assay: In vitro cytotoxic efficacy (MTT); format: cell-based; settings: Homo sapiens, Melanoma, 96 h
[39] = tested on: M14; assay: In vitro cytotoxic efficacy (MTT); format: cell-based; settings: Homo sapiens, Melanoma, 96 h
[40] = tested on: SK-MEL-2; assay: In vitro cytotoxic efficacy (MTT); format: cell-based; settings: Homo sapiens, Melanoma, 96 h
[41] = tested on: SK-MEL-28; assay: In vitro cytotoxic efficacy (MTT); format: cell-based; settings: Homo sapiens, Melanoma, 96 h
[42] = tested on: SK-MEL-5; assay: In vitro cytotoxic efficacy (MTT); format: cell-based; settings: Homo sapiens, Melanoma, 96 h
[43] = tested on: UACC-257; assay: In vitro cytotoxic efficacy (MTT); format: cell-based; settings: Homo sapiens, Melanoma, 96 h
[44] = tested on: UACC; assay: In vitro cytotoxic efficacy (MTT); format: cell-based; settings: 96 h
[45] = tested on: IGROV1; assay: In vitro cytotoxic efficacy (MTT); format: cell-based; settings: Homo sapiens, IGROV-1, Ovarian, 96 h
[46] = tested on: OVCAR-4; assay: In vitro cytotoxic efficacy (MTT); format: cell-based; settings: Homo sapiens, Ovarian, 96 h
[47] = tested on: OVCAR-5; assay: In vitro cytotoxic efficacy (MTT); format: cell-based; settings: Homo sapiens, Ovarian, 96 h
[48] = tested on: OVCAR-8; assay: In vitro cytotoxic efficacy (MTT); format: cell-based; settings: Homo sapiens, Ovarian, 96 h
[49] = tested on: 786-0; assay: In vitro cytotoxic efficacy (MTT); format: cell-based; settings: Homo sapiens, Renal, 96 h
[50] = tested on: CAKI-1; assay: In vitro cytotoxic efficacy (MTT); format: cell-based; settings: Homo sapiens, Renal, 96 h
[51] = tested on: RXF 393; assay: In vitro cytotoxic efficacy (MTT); format: cell-based; settings: Homo sapiens, Renal, 96 h
[52] = tested on: SN12C; assay: In vitro cytotoxic efficacy (MTT); format: cell-based; settings: Homo sapiens, Renal, 96 h
[53] = tested on: TK-10; assay: In vitro cytotoxic efficacy (MTT); format: cell-based; settings: Homo sapiens, Renal, 96 h
[54] = tested on: UO-31; assay: In vitro cytotoxic efficacy (MTT); format: cell-based; settings: Homo sapiens, Renal, 96 h
[55] = tested on: NCI/ADR-RES; assay: In vitro cytotoxic efficacy (MTT); format: cell-based; settings: Homo sapiens, Breast, 96 h
[56] = tested on: MDA-MB-435; assay: In vitro cytotoxic efficacy (MTT); format: cell-based; settings: Homo sapiens, Breast, 96 h
[57] = tested on: BT-549; assay: In vitro cytotoxic efficacy (MTT); format: cell-based; settings: Homo sapiens, Breast, 96 h
[58] = tested on: T-47D; assay: In vitro cytotoxic efficacy (MTT); format: cell-based; settings: Homo sapiens, T47D, Breast, 96 h
[59] = tested on: HCT-116; assay: In vitro cytotoxic efficacy (MTT); settings: Homo sapiens, HCT-116, 96 h

C\C(=C/C=C/C=C/CC/C=C/C(C)C(O)C(C)C(O)/C=C/C=C/C=C/C=C/C=C/C=C/CC(OS(=O)(=O)O)C(C)C(=O)CC(O)CC(O)/C=C/CC(O)CC(O)CC(O)/C=C/CC(O)CC(O)/C=C/CC(O)CC(O)CCCNC(=N)N)C(=O)O (stereo not shown) [Compound 1]
MIC ([1]; 24 hrs): 4 µg/mL (≈ 3.28 µM)
MIC ([2]; 24 hrs): 8 µg/mL (≈ 6.57 µM)
MIC ([3]; 24 hrs): 4 µg/mL (≈ 3.28 µM)
MIC ([4]; C. albicans (Ctro), 24 hrs): 4 µg/mL (≈ 3.28 µM)
IC50 ([5]; Non-small cell lung, A549/ATCC, 96 h, MTT, read-out: IC50): 12 µM
IC50 ([6]; Non-small cell lung, NCI-H460, 96 h, MTT, read-out: IC50): 13 µM
IC50 ([7]; HT-29, Colon, HT29, 96 h, MTT, read-out: IC50): 23 µM
IC50 ([8]; CNS, SNB-19, 96 h, MTT, read-out: IC50): 10 µM
IC50 [9]: 11 µM
IC50 [10]: 12 µM
IC50 ([11]; SK-OV-3, Ovarian, SK-OV3, 96 h, MTT, read-out: IC50): 15 µM
IC50 [12]: 8 µM
IC50 ([13]; Breast, MCF7, 96 h, MTT, read-out: IC50): 18 µM
IC50 [14]: 15 µM
IC50 [15]: 13 µM
IC50 [16]: 10 µM
IC50 [17]: 12 µM
MIC ([18]; 24 h): 4 µg/mL (≈ 3.28 µM)

C\C(=C/C=C/C=C/CC/C=C/C(C)C(O)C(C)C(O)/C=C/C=C/C=C/C=C/C=C/C=C/CC(O)C(C)C(=O)CC(O)CC(O)/C=C/CC(O)CC(O)CC(O)/C=C/CC(O)CC(O)/C=C/CC(O)CC(O)CCCNC(=N)N)C(=O)O (stereo not shown) [Compound 2]
MIC ([1]; 48 hrs): 4 µg/mL (≈ 3.51 µM)
MIC ([2]; 48 hrs): 8 µg/mL (≈ 7.03 µM)
MIC ([3]; 48 hrs): 4 µg/mL (≈ 3.51 µM)
MIC ([4]; 48 h): 4 µg/mL (≈ 3.51 µM)
IC50 ([5]; A549, 96 h): 7 µM
IC50 ([6]; NCI-H460, 96 h): 2 µM
IC50 ([7]; HT-29, 96 h): 4 µM
IC50 ([8]; SNB-19, 96 h): > 25 µM
IC50 ([11]; SK-OV-3, 96 h): > 25 µM
IC50 ([13]; MCF7, 96 h): 0.3 µM
IC50 [19]: > 25 µM
IC50 [20]: 17 µM
IC50 [21]: 8 µM
IC50 [22]: > 25 µM
IC50 [23]: 6 µM
IC50 [24]: 1 µM
IC50 [25]: 8 µM
IC50 [26]: > 25 µM
IC50 [27]: 2 µM
IC50 [28]: 7 µM
IC50 [29]: 0.1 µM
IC50 [30]: 8 µM
IC50 [31]: 0.8 µM
IC50 [32]: 1 µM
IC50 [33]: 4 µM
IC50 [34]: 4 µM
IC50 [35]: 3 µM
IC50 [36]: 10 µM
IC50 [37]: 6 µM
IC50 [38]: 6 µM
IC50 [39]: 0.5 µM
IC50 [40]: 3 µM
IC50 [41]: 13 µM
IC50 [42]: 2 µM
IC50 [43]: 5 µM
IC50 [44]: 8 µM
IC50 [45]: 0.6 µM
IC50 [46]: > 25 µM
IC50 [47]: 6 µM
IC50 [48]: 5 µM
IC50 [49]: 8 µM
IC50 [50]: 2 µM
IC50 [51]: 0.4 µM
IC50 [52]: 7 µM
IC50 [53]: 7 µM
IC50 [54]: 8 µM
IC50 [55]: 24 µM
IC50 [56]: 0.9 µM
IC50 [57]: 0.9 µM
IC50 [58]: > 25 µM
IC50 [15]: 6 µM
IC50 [16]: 4 µM
IC50 [17]: 9 µM
IC50 [59]: 2 µM
MIC ([18]; 48 h): 4 µg/mL (≈ 3.51 µM)
